# Laboratory results taken from patent publication US9427409B2, “Composition and method for aiding sleep” (priority 2014, dated 2016).
# “And” between values parts separate entries of the source, which are not always exact repeats. Equal entries are not always repeated.
# Experiment: In vitro pH-dependent release of each active agent from three-stage release capsules
# Type: physicochemical
# Conditions: individual capsules (Cap# 1-6)
# Protocol: The capsules were designed to release the three drugs in a staged sequence controlled via pH-dependent coatings: uncoated diphenhydramine HCl for immediate release, coated zolpidem for release about 2 hours after administration, and coated lorazepam for release about 4 hours after administration.
# Each capsule contained the following agents: (1) 50 mg of uncoated diphenhydramine HCl; (2) 5 mg of zolpidem tartrate in multiparticulate form coated with […]® L30 D-55, which dissolves at above pH 5.5 (with half-maximal drug release at pH 5.8 and maximal release at pH 6.3); and (3) 0.5 mg of lorazepam in multiparticulate form coated with […]® L/S 12.5 (1:1), which dissolves at above pH 6.5 (with half-maximal drug release at pH 7.2). The coatings were selected to achieve release of zolpidem tartrate with gastric emptying and release of lorazepam when the drug reaches the intestines.
# Six capsules were individually tested in beakers for pH-dependent release of each active agent.
# [1] = At 30 min in pH 2 (At time zero pH 2)
# [2] = At 150 min in pH 6.4 (At 120 min changed to pH 6.4)
# [3] = At 270 min in pH 7.2 (At 240 min changed to pH 7.2)
SMILES,% Release [1],"% Release (At 30 min in pH 2 (At time zero pH 2), listed as lorazepam)",% Release [2],"% Release (At 150 min in pH 6.4 (At 120 min changed to pH 6.4), listed as lorazepam)",% Release [3],"% Release (At 270 min in pH 7.2 (At 240 min changed to pH 7.2), listed as lorazepam)","% Release (At 30 min in pH 2 (At time zero pH 2), listed as diphenhydramine HCl)"
"O=C1Nc2ccc(Cl)cc2C(c2ccccc2Cl)=NC1O (racemic) [Lora, (RS)-7-Chloro-5-(2-chlorophenyl)-3-hydroxy-1,3-dihydro-2H-1,4-benzodiazepin-2-one]",0%,neither zolpidem tartrate nor lorazepam was released,0%,"but not lorazepam, was released",81.3% and 77.2% and 80.1% and 83.2% and 70.2% and 72.1%,more than 70%,
"CN(C)CCOC(c1ccccc1)c1ccccc1 [Diph, 2-(diphenylmethoxy)-N,N-dimethylethanamine]",93.4% and 89.8% and 98.2% and 98.7% and 96.8% and 97.3%,,98.0% and 100% (3×) and 99.9% (2×),,99.9% and 100% (2×) and 99.8% and 99.1% and 99.2%,,more than 89%
